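All cell lines were grown in 96-well plates and treated with compound for 48 hours. TGI marks complete inhibition of growth.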

Experiment in all cases: inhibition of tumour cell growth, NCI panel, 48 h
Assay [1] deals with HCT-116 colon.
The subject of assay [2] is HL-60(TB) leukemia.
Assay [3] has as its system LOX IMVI melanoma.
Assay [4] deals with NCI/ADR-RES ovarian.
Assay [5] deals with OVCAR-4 ovarian.
The subject of assay [6] is PC-3 prostate.
The test system of assay [7] is SK-MEL-5 melanoma.
Assay [8] concerns SNB-19 CNS.
The test system of assay [9] is SW-620 colon.
Assay [10] has as its system U251 CNS.
The subject of assay [11] is UACC-62 melanoma.
Assay [12] concerns UO-31 renal.
Assay [13] concerns RPMI-8226 leukemia.
In assay [14] the test system is HCC-2998 colon.

`O=C(O)Cc1ccc(Nc2nc3cc(C(F)(F)F)ccc3nc2C(=O)O)cc1`: the TGI in assay [1], in assay [2], in assay [3], in [4], in assay [5] and in [6] was over 100 µM in each case. The TGI in assay [7], in assay [8], in [9], in assay [10], in [11] and in assay [12] was over 100 µM each time.

On to `O=C(O)C(O)C(O)C(=O)O` (stereo not given), for which the TGI in assay [1], in assay [2], in assay [3], in [4], in assay [5] and in assay [6] was over 100 µM throughout. Further, the TGI in [13], in assay [7], in assay [8], in [9], in assay [10] and in assay [11] was over 100 µM throughout. In [12], this compound displayed a TGI of over 100 µM.

`O=C(/C=C/c1ccccc1)CSc1ncn[nH]1`: the TGI in [14], in assay [1], in [2], in assay [4], in [5] and in assay [6] was over 100 µM in each case. Besides, the TGI in assay [13], in assay [7], in [8], in [9], in assay [10] and in assay [11] was over 100 µM each time. In [12], this compound had a TGI of over 100 µM.

With `COC(=O)CCC1=C(CC(=O)OC)C(C)(OC)N=C1NC(=O)OCc1ccccc1` (stereo not given), the TGI in assay [14], in [1], in assay [3], in assay [4], in assay [5] and in [6] was over 100 µM in each case. In addition, the TGI in assay [13], in assay [7], in assay [8], in assay [9], in assay [10] and in assay [11] was over 100 µM each time. Also, the TGI in [12] is over 100 µM.

For `Cc1ccc(SC2C(=O)C3CC(OCc4ccccc4)C2(C)C3(C)C)cc1` (stereo not given), the TGI in assay [14], in assay [1], in assay [2], in [4], in assay [6] and in [7] was over 100 µM throughout. Besides, the TGI in assay [8], in [9], in assay [10], in [11] and in [12] was over 100 µM each time.

Regarding `Cc1cnc2sn(-c3ccc([N+](=O)[O-])cc3)c(=O)c2c1`, the TGI in assay [14], in [1], in assay [3], in [4], in assay [5] and in assay [6] was over 100 µM throughout. Moreover, the TGI in assay [13], in assay [7], in [8], in assay [9], in [10] and in assay [11] was over 100 µM each time. Further, the TGI in assay [12] is over 100 µM.

In the case of `CN1CN(c2ccccc2)C2(CCN(CC(C)(c3ccc(F)cc3)C3OCCCO3)CC2)C1=O` (stereo not given), the TGI in assay [1] stood at 28.7 µM; in assay [2], 33.7 µM; in assay [3], 31.8 µM; in assay [4], 26.9 µM; in assay [6] it was 34.7 µM; in assay [13] it was 27.3 µM. The TGI in [7] was 30.1 µM; in assay [8] it was 42 µM; in [9], 43.7 µM; in assay [10], 26.6 µM; in assay [11], 34.6 µM; in [12], 11 µM.

On to `O=C1c2cc(Cl)ccc2NC(=NC2CCCC2)C2CSCN12` (stereo not given), for which the TGI in [14], in [1], in [3], in assay [4], in assay [5] and in assay [6] was over 100 µM throughout. In addition, the TGI in assay [13], in assay [7], in assay [8], in [9], in [10] and in [11] was over 100 µM throughout. This compound displayed a TGI in assay [12] of over 100 µM.

As for `CC(C)(C)OC(=O)N(CCCCNC(=O)OCc1ccccc1)CCCNC(=O)OCc1ccccc1`, the TGI is over 100 µM in assay [14]; over 100 µM in assay [1]; 53.9 µM in assay [2]; over 100 µM in assay [4]; over 100 µM in [5]; over 100 µM in [6]. Besides, the TGI in assay [13] is over 100 µM; in assay [7], 22.5 µM; in [8] it was over 100 µM; in assay [9] it was over 100 µM; in assay [10], over 100 µM; in assay [11] it was over 100 µM.

In the case of `Cc1nc(CC#N)n[nH]1`, the TGI in assay [14], in assay [1], in [3], in assay [4], in [5] and in assay [6] was over 100 µM each time. Moreover, the TGI in assay [13], in [7], in assay [8], in assay [9], in assay [10] and in [11] was over 100 µM in each case. In assay [12], this compound had a TGI of over 100 µM.

The values above are taken from PubChem BioAssay (NCI).
